IC50 data for eleven compounds are collected here from patent publication US11667643B2, “RIP1K inhibitors” (priority 2020, dated 2023).

pIC50: −log10 of the molar value. Like-named read-outs stand apart in the source and are kept apart here.

The target of one experiment is RIPK1 (Homo sapiens (Human), UniProt Q13546). As to the kind of experiment: biochemical. In kind it is biochemical. The method in brief: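 ADP-Glo luminescent assay of RIPK1 at 31 ng/well in Tris-HCl pH 7.4 buffer with MgCl2, BSA, 100 μM DTT and 4 mM MnCl2; compounds run in duplicate. Kinase reaction 30 min at 30 °C, then ADP-Glo 40 min and detection reagent 30 min at room temperature; ADP formation read as luminescence.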

A further experiment relates to U937 cells. The experiment can be described thus: U937 cell necroptosis assay (TNFa + zVAD, CellTiter-Glo recovery), functional human RIP1 assay. In kind it is cell-based. The note with it: Homo sapiens, U-937, 18 h, read-out: U937 Zvad TNF CTG Recovery, U937, TNFa + zVAD (IC50), U937 cells, zVAD-fmk, TNFa 2 ng/mL, 18 hours, CellTiter-Glo. The method in brief:
(§1)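 Human U937 cells (50K/well, 60 uM zVAD-fmk in plating medium) and murine L929 cells (10K/well, medium replaced with 40 uM zVAD-fmk) were pre-incubated with compound 1 h at 37 °C. TNFa was then added at a final 2 ng/mL. Viability by CellTiter-Glo luminescence after 18 h.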
A general note: ATP-based viability assays read luminescence as a measure of living cells.

The subject of the next experiment is L929 cells. The experiment can be described thus: L929 cell necroptosis assay (TNFa + zVAD, CellTiter-Glo recovery), functional murine RIP1 assay. To be noted: Mus musculus, L929, 18 h, read-out: L929-CTG-recovery, L929, TNFa + zVAD (IC50), L929 cells, zVAD-fmk, TNFa 2 ng/mL, 18 hours, CellTiter-Glo. In kind it is cell-based. The method in brief: as §1
The mark [1] stands for this setting: RIPK1 enzyme 31 ng/well, 30° C. for 30 minutes, luminescence, read-out: RIPK1 ADP-Glo Kinase (IC50).

Chain of RIPK1 (Q13546 whole entry, species assumed): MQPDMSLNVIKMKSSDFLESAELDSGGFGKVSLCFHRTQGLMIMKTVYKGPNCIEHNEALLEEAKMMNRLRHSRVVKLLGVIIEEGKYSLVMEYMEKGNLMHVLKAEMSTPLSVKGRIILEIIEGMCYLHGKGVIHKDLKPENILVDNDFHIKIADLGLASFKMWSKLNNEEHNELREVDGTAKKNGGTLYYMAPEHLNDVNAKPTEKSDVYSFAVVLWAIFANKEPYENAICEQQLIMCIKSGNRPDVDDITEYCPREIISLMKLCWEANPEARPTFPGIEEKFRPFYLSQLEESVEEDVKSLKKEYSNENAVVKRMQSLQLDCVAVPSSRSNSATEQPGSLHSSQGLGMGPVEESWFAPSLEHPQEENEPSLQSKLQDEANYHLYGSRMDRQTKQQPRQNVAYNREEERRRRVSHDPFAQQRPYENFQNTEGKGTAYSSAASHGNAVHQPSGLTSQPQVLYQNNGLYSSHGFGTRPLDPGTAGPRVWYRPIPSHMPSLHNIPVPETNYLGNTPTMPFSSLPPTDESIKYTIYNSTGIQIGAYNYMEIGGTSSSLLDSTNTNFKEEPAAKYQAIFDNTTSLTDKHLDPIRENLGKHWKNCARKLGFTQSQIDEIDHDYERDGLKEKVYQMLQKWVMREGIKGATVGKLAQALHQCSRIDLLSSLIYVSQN

`CC(C)(O)C#Cc1ccc2c(c1)-n1nnnc1[C@@H](NC(=O)c1n[nH]c(Cc3ccccc3)n1)CO2` [Compound I-69, (R)-5-Benzyl-N-(9-(3-hydroxy-3-methylbut-1-yn-1-yl)-4,5-dihydrobenzo[b]tetrazolo[1,5-d][1,4]oxazepin-4-yl)-1H-1,2,4-triazole-3-carboxamide]: the pIC50 at RIPK1 (setting [1]) is 7.22; in the experiment on U937 cells it was 6.10; with L929 cells it was 2.00.

Take `O=C(NC1CSc2cccn2-n2ccnc21)c1ncn(Cc2c(Cl)cccc2Cl)n1` (racemic) [Compound I-29, (±)-1-(2,6-Dichlorobenzyl)-N-(4,5-dihydroimidazo[1,2-d]pyrrolo[2,1-b][1,3,4]thiadiazepin-4-yl)-1H-1,2,4-triazole-3-carboxamide]: the pIC50 was 8.01 against RIPK1, 8.96 in the experiment with U937 cells and 6.71 in the experiment on L929 cells.

On to `CC(C)(O)CCc1ccc2c(c1)-n1ccnc1C(NC(=O)c1n[nH]c(Cc3ccccc3)n1)CC2` (racemic) [Compound I-68, (±)-5-Benzyl-N-(9-(3-hydroxy-3-methylbutyl)-5,6-dihydro-4H-benzo[f]imidazo[1,2-a]azepin-4-yl)-1H-1,2,4-triazole-3-carboxamide], for which the values for the pIC50 on RIPK1 (setting [1]), in the experiment with U937 cells and in the experiment with L929 cells were 6.93, 7.60 and 5.06, respectively.

For the compound `O=C(N[C@H]1CSc2ccccc2-n2c1noc2=O)c1cc(Cc2ccccc2)on1` [Compound I-28, 5-Benzyl-N-((4R)-1-oxo-4,5-dihydro-1H-benzo[b][1,2,4]oxadiazolo[4,3-d][1,4]thiazepin-4-yl)isoxazole-3-carboxamide], the pIC50 on RIPK1 (setting [1]) was 7.17; in the experiment with U937 cells it was 7.78; in the experiment on L929 cells it was 4.97.

Regarding `O=C(NC1Cc2ccccc2-n2ccnc21)c1n[nH]c(Cc2ccccc2)n1` (racemic) [Compound I-66, (±)-5-Benzyl-N-(4,5-dihydroimidazo[1,2-a]quinolin-4-yl)-1H-1,2,4-triazole-3-carboxamide], the pIC50 on RIPK1 (setting [1]) is 4.87; in the experiment with U937 cells it was 2.00; with L929 cells, 2.00.

Consider `O=C(N[C@H]1COc2ccccc2-n2c1noc2=O)c1n[nH]c(Cc2ccc(F)cc2)n1` [Compound I-50, 5-(4-Fluorobenzyl)-N-((4R)-1-oxo-4,5-dihydro-1H-benzo[6][1,2,4]oxadiazolo[4,3-d][1,4]oxazepin-4-yl)-1H-1,2,4-triazole-3-carboxamide], for which the pIC50 is 6.96 at RIPK1 (setting [1]), 6.61 in the experiment with U937 cells and 2.00 with L929 cells.

As to `O=C(N[C@H]1CCc2ccc(N3CCC4(CCOCC4)CC3)cc2-n2ccnc21)c1n[nH]c(Cc2ccccc2)n1` [Compound I-83, (S)—N-(9-(3-Oxa-9-azaspiro[5.5]undecan-9-yl)-5,6-dihydro-4H-benzo[f]imidazo[1,2-a]azepin-4-yl)-5-benzyl-1H-1,2,4-triazole-3-carboxamide], the pIC50 was 7.36 on RIPK1 (setting [1]), 8.37 with U937 cells and 5.67 with L929 cells.

Take `O=C(N[C@H]1COc2ccccc2-n2nnnc21)c1n[nH]c(Cc2ccccc2)n1` [Compound I-3, (R)-5-Benzyl-N-(4,5-dihydrobenzo[b]tetrazolo[1,5-d][1,4]oxazepin-4-yl)-1H-1,2,4-triazole-3-carboxamide]: the pIC50 on RIPK1 (setting [1]) was 7.24; with U937 cells it was 5.39; in the experiment on L929 cells it was 2.00.

Consider `O=C(NC1CCc2ccc(N3CCC4(CCOCC4)CC3)cc2-n2ccnc21)c1n[nH]c(Cc2ccccc2)n1` (racemic) [Compound I-64, (±)-N-(9-(3-Oxa-9-azaspiro[5.5]undecan-9-yl)-5,6-dihydro-4H-benzo[f]imidazo[1,2-a]azepin-4-yl)-5-benzyl-1H-1,2,4-triazole-3-carboxamide], for which the pIC50 is 6.90 on RIPK1, 8.11 with U937 cells and 5.39 in the experiment on L929 cells.

`O=C(N[C@H]1CSc2ccccc2-n2nnnc21)c1ncn(Cc2ccc(F)cc2)n1` [Compound I-22, (R)—N-(4,5-Dihydrobenzo[b]tetrazolo[1,5-d][1,4]thiazepin-4-yl)-1-(4-fluorobenzyl)-1H-1,2,4-triazole-3-carboxamide]: the pIC50 is 7.49 on RIPK1 (setting [1]), 8.70 in the experiment with U937 cells and 5.60 in the experiment with L929 cells.

Turning to `O=C(NC1CCc2ccccc2-n2cnnc21)c1ncn(Cc2c(Cl)cccc2Cl)n1` (racemic) [Compound I-58, (±)-1-(2,6-Dichlorobenzyl)-N-(5,6-dihydro-4H-benzo[f][1,2,4]triazolo[4,3-a]azepin-4-yl)-1H-1,2,4-triazole-3-carboxamide], the pIC50 was 7.24 at RIPK1 (setting [1]), 7.13 in the experiment on U937 cells and 2.00 in the experiment with L929 cells.
